Tested on: amniotic fluid-derived cell line AFCA009-A
Test: Trichostatin A 24 h time course, gene expression by Real-Time PCR (Example 2)
Assay type: cell-based, human
Conditions: 1.25 μM
Description: Amniotic fluid derived cells were seeded into 24-well tissue culture plates at a density of 5000/cm^2 and cultured in AMNIOMAX medium (Invitrogen) under standard cell culture conditions until confluent. Cells were obtained according to methods described in Example 14. After reaching confluence, 1.25 μM trichostatin A diluted in DMSO and medium was added to sample wells; an equivalent concentration of DMSO was added to control wells as a no treatment control.
RNA samples were obtained from treated cultures at 30 minutes, 1.5 hours, 3 hours, 6 hours, 12 hours, and 24 hours following addition of trichostatin A or DMSO. Culture medium was removed, cells were washed with PBS, and RLT lysis buffer with β-mercaptoethanol (Qiagen) was added. RNA was purified using the RNeasy Mini Kit (Qiagen). RNA quantity and quality was determined using a spectrophotometer, and cDNA was made using the iScript cDNA synthesis kit (BioRad).
Expression levels of Sox17, HNF-3 beta, Pdx-1, insulin, and glucagon were determined by Real-Time PCR. Samples of 20 ng cDNA were used in each reaction, performed on the Applied Biosystems 7500 according to methods described in Example 15. Data analysis was performed using the accompanying software. Human pancreas cDNA was included as a positive control, and results were normalized against GAPDH expression levels.
Real-time PCR amplifcation and quantitative analysis. Unless otherwise stated, all reagents were purchased from Applied Biosystems. Real-time PCR reactions were performed using the ABI PRISM™ 7500 Sequence Detection System. TAQMAN™ FAST UNIVERSAL PCR MASTER MIX™ (ABI, CA) was used with 20 ng of reverse transcribed RNA in a total reaction volume of 20 μl. Each cDNA sample was run in duplicate to allow correction of pipetting errors. Primers and FAM-labeled TAQMAN™ probes were used at concentrations of 200 nM. The level of expression for each target gene was normalized using the pre-developed Applied Biosystem's human glyceraldehyde-3-phosphate dehydrogenase (GAPDH) endogenous control kit. Primers and probes were designed using either ABI PRISM PRIMER EXPRESS™ software or a pre-developed ABI gene analysis kit. For each gene, either one of the primers or the probe were designed to be exon-boundary spanning. This eliminated the possibility of the primers/probe binding to any genomic DNA present. The primer and probe sets are listed as follows: Pdx-1 (Hs00426216), Insulin (Hs00355773), glucagon (Hs00174967), and FoxA2 (HNF 3-beta) (Hs00232764). The remaining primers were designed using the PRIMERS program (ABI, CA). After an initial 95° C. incubation for 20 sec, samples were cycled 40 times in two stages: a denaturation step at 95° C. for 3 sec, followed by an annealing/extension step at 60° C. for 30 sec.
For each primer/probe set, a cycle time value was determined as the cycle number at which the fluorescence intensity of the PCR reaction reached a specific value in the middle of the exponential region of amplification. An increase in expression of a gene corresponded to a decrease in the number of cycles required for the fluorescence intensity to reach this value.

In the case of CC(/C=C/C(=O)NO)=C\[C@@H](C)C(=O)c1ccc(N(C)C)cc1 [trichostatin A], the HNF-3 beta gene expression (0.5 h) is reported as “+ (detectable between 35 and 40 cycles by RT-PCR)”, the Insulin gene expression (0.5 h) is reported as “+ (detectable between 35 and 40 cycles by RT-PCR)” and the PDX-1 gene expression (0.5 h) is reported as “nd (not detectable at >40 cycles by RT-PCR)”. The Sox17 gene expression (0.5 h) was “+++ (detectable at less than 35 cycles by RT-PCR with std error less than 0.9)”, the glucagon gene expression (0.5 h) was “nd (not detectable at >40 cycles by RT-PCR)” and the “HNF-3 beta RT-PCR detection cycle” value (30 minutes) was greater than 35 cycles. The HNF-3 beta gene expression (1.5 h) was “+ (detectable between 35 and 40 cycles by RT-PCR)”, the Insulin gene expression (1.5 h) was “+ (detectable between 35 and 40 cycles by RT-PCR)” and the PDX-1 gene expression (1.5 h) was “nd (not detectable at >40 cycles by RT-PCR)”. The Sox17 gene expression (1.5 h) was “+++ (detectable at less than 35 cycles by RT-PCR with std error less than 0.9)”, the glucagon gene expression (1.5 h) was “nd (not detectable at >40 cycles by RT-PCR)” and the HNF-3 beta gene expression (3 h) was “+++ (detectable at less than 35 cycles by RT-PCR with std error less than 0.9)”. The Insulin gene expression (3 h) was “+ (detectable between 35 and 40 cycles by RT-PCR)”, the PDX-1 gene expression (3 h) was “nd (not detectable at >40 cycles by RT-PCR)” and the Sox17 gene expression (3 h) was “+++ (detectable at less than 35 cycles by RT-PCR with std error less than 0.9)”. The glucagon gene expression (3 h) was “nd (not detectable at >40 cycles by RT-PCR)”, the HNF-3 beta gene expression (6 h) was “+++ (detectable at less than 35 cycles by RT-PCR with std error less than 0.9)” and the Insulin gene expression (6 h) was “nd (not detectable at >40 cycles by RT-PCR)”. For the same molecule, the PDX-1 gene expression (6 h) was “+ (detectable between 35 and 40 cycles by RT-PCR)”, the Sox17 gene expression (6 h) was “+++ (detectable at less than 35 cycles by RT-PCR with std error less than 0.9)” and the glucagon gene expression (6 h) was “nd (not detectable at >40 cycles by RT-PCR)”. The “Pdx-1 RT-PCR detection cycle” value (6 hours) was greater than 35 cycles, the HNF-3 beta gene expression (12 h) was “+++ (detectable at less than 35 cycles by RT-PCR with std error less than 0.9)” and the Insulin gene expression (12 h) was “+ (detectable between 35 and 40 cycles by RT-PCR)”. The PDX-1 gene expression (12 h) was “+++ (detectable at less than 35 cycles by RT-PCR with std error less than 0.9)”, the Sox17 gene expression (12 h) was “+++ (detectable at less than 35 cycles by RT-PCR with std error less than 0.9)” and the glucagon gene expression (12 h) was “+ (detectable between 35 and 40 cycles by RT-PCR)”. For the same molecule, the “glucagon RT-PCR detection cycle” value (12 hours) was greater than 35 cycles, the HNF-3 beta gene expression (24 h) was “+++ (detectable at less than 35 cycles by RT-PCR with std error less than 0.9)” and the Insulin gene expression (24 h) was “+ (detectable between 35 and 40 cycles by RT-PCR)”. The PDX-1 gene expression (24 h) was “+++ (detectable at less than 35 cycles by RT-PCR with std error less than 0.9)”, the Sox17 gene expression (24 h) was “+++ (detectable at less than 35 cycles by RT-PCR with std error less than 0.9)” and the glucagon gene expression (24 h) was “+++ (detectable at less than 35 cycles by RT-PCR with std error less than 0.9)”. For the same molecule, the “HNF-3 beta RT-PCR detection cycle” value (24 hours) was less than 35 cycles, the “Pdx-1 RT-PCR detection cycle” value (24 hours) was less than 35 cycles and the “Pdx-1 gene expression relative to human pancreas” value (24 hours) was ~0.1 % of human pancreas levels. The “glucagon RT-PCR detection cycle” value (24 hours) was less than 24 cycles.
